These results are taken from patent US5872104A, “Combinations and methods for reducing antimicrobial resistance” (Oridigm Corporation, priority 1994, dated 1999).

Values after ≈ are worked out from the molar mass of the structure shown. Where two headings read alike, the source gives them in different places.

Series [1] relates to transfer and ribosomal RNA (tRNA and rRNA) methylases. The settings on record: cited from earlier work.
The next series has as its system Mycobacterium leprae. The settings on record: 12 μg/mouse every 12 hours, 15 doses, local; cited from earlier work.
Series [2] has as its system porcine liver tRNA methyltransferase. The following applies: cited from earlier work.
For series [3] the following is noted: sc., rats; cited from earlier work.
Series [4] relates to RNA methyltransferase from Streptomyces antibioticus. The settings on record: 100 μM; cited from earlier work.
For a further series, the system named is methyl transfer from SAM. The settings on record: cited from earlier work.
The conditions of series [5]: dogs; cited from earlier work.
For another series, the system named is RNA methylation. The settings on record: cited from earlier work.
Series [6] relates to cell transformation by Rous sarcoma virus. The following applies: concentrations not toxic to normal cells; cited from earlier work.
Series [7] deals with S. aureus 27660 (erythromycin resistant). It is filed as cell-based. The settings on record: for enhanced killing with erythromycin: in combination with erythromycin.
Series [8] has as its system S. aureus 6538 (erythromycin susceptible). As to the kind of experiment: Erythromycin disk susceptibility with inhibitor pre-mixed in agar. The settings on record: inhibitor pre-mixed with BHIA or TSA, with erythromycin (FIG. 2). It is filed as cell-based.
Series [9] has as its system S. aureus 27660 (erythromycin resistant). As to the kind of experiment: Erythromycin disc susceptibility after pre-incubation with inhibitor discs (second procedure). The settings on record: 310 μg/disc, pre-incubation 0-5 hours, 18 hours incubation (FIG. 4).
The test system of another series is cytotoxicity. The settings on record: cited from earlier work.
Series [10] relates to 28S rRNA, 18S rRNA and tRNA. The settings on record: NPA 10 μM; c^3 -NPA 10 μM; c^3 -Ari 100 μM; cited from earlier work.
In the next series the test system is SAHH hydrolase. The following applies: cited from earlier work.
The subject of the next series is hamster liver SAHH. The settings on record: cited from earlier work.
Another series has as its system human liver SAHH. The settings on record: cited from earlier work.
The target in another series is SAH hydrolase. The following applies: cited from earlier work.
The test system of series [11] is vesicular stomatitis virus. The following applies: primary rabbit kidney cells; cited from earlier work.
Another series deals with human retrovirus. The settings on record: cited from earlier work.
The test system of the next series is malarial growth. The settings on record: read-out: ED50 (the source's name); cited from earlier work.
Another series deals with vaccinia virus. The following applies: cited from earlier work.
Series [12] deals with N- and O-methylation of mRNA. The settings on record: 100 μM; cited from earlier work.
In series [13] the test system is vaccinia virion mRNA(guanine-7)methyltransferase. The following applies: 100 μM; cited from earlier work.
The next series concerns RNA methyltransferase. The following applies: cited from earlier work.
Series [14] concerns vaccinia virion mRNA(nucleoside-2'-)methyltransferase. The settings on record: cited from earlier work.
In another series the test system is tRNA methylases. The following applies: cited from earlier work.
Another series concerns poly(A)-RNA methylation. The following applies: inhibitor level that still permitted cell growth; cited from earlier work.
For series [15] the following is noted: not told; cited from earlier work.
The test system of series [16] is nucleosidase enzymes responsible for SAH metabolism. The following applies: cited from earlier work.
Series [17] concerns Staphylococcus aureus, methicillin susceptible. The settings on record: in µg/mL; cited from earlier work.
The subject of series [18] is Staphylococcus aureus, methicillin resistant. The settings on record: cited from earlier work.
Series [19] concerns Streptococcus pyogenes (group A), erythromycin susceptible. The settings on record: cited from earlier work.
Another series has as its system Streptococcus pneumoniae. The settings on record: in µg/mL; cited from earlier work.
Another series concerns Streptococcus bovis. The following applies: cited from earlier work.
The test system of series [20] is E. faecalis (Erythromycin susceptible). The settings on record: cited from earlier work.
Series [21] relates to E. faecalis (Erythromycin resistant). The settings on record: cited from earlier work.
Another series has as its system Viridans streptococci. The settings on record: cited from earlier work.
In series [22] the test system is Coagulase-negative staphylococci, methicillin resistant. The settings on record: cited from earlier work.
The next series deals with Listeria monocytogenes. The following applies: in µg/mL; cited from earlier work.
The test system of the next series is Haemophilus influenzae. The following applies: in µg/mL; cited from earlier work.
The test system of the next series is Moraxella catarrhalis. The following applies: in µg/mL; cited from earlier work.
The subject of the next series is Neisseria gonorrhoeae. The following applies: in µg/mL; cited from earlier work.
For a further series, the system named is N. meningitidis. The following applies: in µg/mL; cited from earlier work.
Another series relates to Pasteurella multocida. The settings on record: cited from earlier work.
The test system of a further series is Bordetella pertussis. The following applies: in µg/mL; cited from earlier work.
In another series the test system is Legionella pneumophila. The following applies: in µg/mL; cited from earlier work.
In a further series the test system is Campylobacter species. The settings on record: in µg/mL; cited from earlier work.
Series [23] concerns Gram-positive cocci (peptococcus, peptostreptococcus). The settings on record: anaerobes; cited from earlier work.
In the next series the test system is Bacteroides fragilis. The settings on record: anaerobes; in µg/mL; cited from earlier work.
Another series concerns Clostridium perfringens. The settings on record: anaerobes; in µg/mL; cited from earlier work.
Another series concerns Chlamydia trachomatis. The following applies: in µg/mL; cited from earlier work.
The next series relates to Mycoplasma pneumoniae. The following applies: in µg/mL; cited from earlier work.
For series [24] the following is noted: cited from earlier work.
In a further series the test system is polyamine biosynthesis. The settings on record: cited from earlier work.
Series [25] relates to SAM-dependent methylations. The settings on record: cited from earlier work.

Regarding polyinosinate, in series [1], the “combination with adenine and adenosine” value is “particularly effective in combination with adenine and adenosine”; the “inhibition of tRNA and rRNA methylases” value is “inhibits transfer and ribosomal RNA (tRNA and rRNA) methylases”. In series [1] (methylases of individual bases), the inhibition by base entry was “inhibition of adenine methylases occurred to the greatest extent and guanine methylases to the least”. For the same compound, the “multiplication of M. leprae” value in the series with Mycobacterium leprae is on record as “inhibit multiplication of Mycobacterium leprae”.

By LD50 is commonly meant the dose expected to kill half of the subjects tested. With `NC(=O)c1cccnc1` [Nicotinamide], the “inhibition of tRNA methyltransferase” value in series [2] is given as “inhibition of porcine liver tRNA methyltransferase activity”. The LD50 in series [3] is 1680 mg/kg.

What is called inhibition is the drop in the measured response relative to a control, in per cent. Consider `Nc1ncnc2c1ncn2[C@@H]1O[C@H](CSCC[C@H](N)C(=O)O)[C@@H](O)[C@H]1O` [S-Adenosylhomocysteine, S-adenosylhomocysteine], for which the inhibition is recorded as 97% in series [4] and “effective inhibitors” with methyl transfer from SAM. In [5], the uptake and excretion result was “not taken up and excreted unchanged in urine”.

In the case of `CC(C)CSC[C@H]1O[C@@H](n2cnc3c(N)ncnc32)[C@H](O)[C@@H]1O` [SIBA, 5'-deoxy-5'-S-isobutyl-adenosine], in series [4], the inhibition is 55%. Moreover, in the series on RNA methylation (1 mM), the “inhibition of RNA methylation” value is given as ~ 65%. Also, the “inhibition of methylation in whole cells” value in the series with RNA methylation is on record as “strongly inhibit methylation in whole cells”. In addition, the “methylation of eukaryotic mRNA” value in the series on RNA methylation (especially that of the 5' cap) is given as “inhibits the methylation of eukaryotic mRNA”. Further, the potency as inhibitor result in series [6] is “most potent”.

Take `CCSCC[C@H](N)C(=O)O` [Ethionine]: the “increase in the size of the clear zone” value was “increase in the size of the clear zone” in [7] (inhibitor pre-mixed with BHIA or TSA, with erythromycin (FIG. 3)) and “increase in the size of the clear zone” in series [8]. Further, the “increase in clear zones relative to erythromycin alone” value in [9] is recorded as “Increases in clear zones were observed”.

As to `Nc1nccc2c1ncn2[C@@H]1C=C(CO)[C@@H](O)[C@H]1O` [3-Deazaneplanocin A, 3-deazaneplanocin A], the “enhanced killing with erythromycin” value in series [7] is “enhanced the killing”. The “cytotoxicity relative to neplanocin A” value in the series on cytotoxicity was “significantly less cytotoxic than neplanocin A”. For the same compound, in series [10], the “methylation of 28S rRNA, 18S rRNA and tRNA” value is “inhibit the methylation of 28S rRNA, 18S rRNA and tRNA”. Besides, in the series with SAHH hydrolase, the “antiviral activity and cytotoxicity vs first generation” value is “retained antiviral activity and considerably lower cytotoxicity than their parent first generation inhibitors”.

Consider `Nc1ncnc2c1ncn2[C@@H]1O[C@H](CO)[C@@H](O)[C@H]1Cl` [CLA, 2'-deoxy-2'-chloroadenosine], for which the inhibition entry in the series on hamster liver SAHH and with human liver SAHH was “inhibitor” throughout.

The term Ki denotes the dissociation constant of the complex between target and ligand, obtained from inhibition or displacement. As to `Nc1ncnc2c1ncn2[C@@H]1C=C(CO)[C@@H](O)[C@H]1O` [NPA, neplanocin A], the Ki on SAH hydrolase (De Clercq & Cools (1985)) was 0.002 µM. Besides, the SAH hydrolase inhibition result with SAH hydrolase is recorded as “potent inhibitor of SAH hydrolase”. For the same compound, the “minimum inhibitor concentration (50% reduction of cytopathogenicity)” value in series [11] is 0.018 µg/mL. The effective inhibitory concentration in the series on human retrovirus was about 0.2 µg/mL. Also, the IC50 in the series on malarial growth was 3 µM. Moreover, the “inhibition of plaque formation” value in the series on vaccinia virus (0.5 μM) is 84%; with vaccinia virus (1 μM), 95%. In addition, the “toxicity to the host cells” value in the series on vaccinia virus (0.5 and 1 μM) is listed as “little toxicity to the host cells”.

`Nc1nccc2c1ncn2[C@@H]1O[C@H](CO)[C@@H](O)[C@H]1O` [3-deazaadenosine]: the “inhibition of N- and O-methylation of mRNA” value in series [12] is 31-83%.

Turning to `CNc1ncnc2c1ncn2[C@@H]1O[C@H](CSCC[C@H](N)C(=O)O)[C@@H](O)[C@H]1O` [S-(N^6 -methyladenosyl)-L-homocysteine], the inhibition in [13] was 85%. Moreover, in the series on RNA methyltransferase, the “potency relative to SAH” value is on record as “nearly as potent an RNA methyltransferase inhibitor as SAH”.

As for `Nc1ncnc2c1ccn2[C@@H]1O[C@H](CSCCC(N)C(=O)O)[C@@H](O)[C@H]1O` (stereo partly shown) [STH, S-Tubercidinylhomocysteine], the inhibition entry in series [14] was “particularly potent inhibitor”. In addition, the “inhibition of tRNA methylases relative to SAH” value in the series on tRNA methylases was “retains the inhibitory potency of SAH on tRNA methylases”. For the same compound, the “inhibition of poly(A)-RNA methylation” value in the series on poly(A)-RNA methylation is “Inhibition of cytoplasmic methylation”. Further, the membrane permeation result in series [15] is recorded as “able to permeate cell membranes”. For the same compound, in [16], the susceptibility to nucleosidase entry was “not susceptible to the nucleosidase enzymes”.

With `CC[C@H]1OC(=O)[C@H](C)[C@@H](O[C@H]2C[C@@](C)(OC)[C@@H](O)[C@H](C)O2)[C@H](C)[C@@H](O[C@@H]2O[C@H](C)C[C@H](N(C)C)[C@H]2O)[C@](C)(O)C[C@@H](C)CN(C)[C@H](C)[C@@H](O)[C@]1(C)O` [Azithromycin], the MIC90 in series [17] was 1.0; in series [18] it was over 128 µg/mL; in [19], 0.12 µg/mL (≈ 0.16 µM); in the series with Streptococcus pneumoniae, 0.12; in the series with Streptococcus bovis, 0.25 µg/mL (≈ 0.334 µM); in [20], 8 µg/mL (≈ 10.7 µM). Also, the MIC90 in series [21] was over 64 µg/mL; with Viridans streptococci, 16 µg/mL (≈ 21.4 µM); in series [22], over 128 µg/mL; in the series on Listeria monocytogenes, 4.0; in the series on Haemophilus influenzae, 1.0; in the series with Moraxella catarrhalis, 0.5. In addition, the MIC90 in the series on Neisseria gonorrhoeae is 0.15; with N. meningitidis, 0.12; in the series on Pasteurella multocida, 0.5 µg/mL (≈ 0.668 µM); in the series with Bordetella pertussis, 0.12; with Legionella pneumophila, 0.25-2.0; in the series on Campylobacter species it was 0.25. Also, the MIC90 in series [23] was 2 µg/mL (≈ 2.67 µM); in the series with Bacteroides fragilis, 8.0; in the series with Clostridium perfringens it was 1.0; in the series on Chlamydia trachomatis, 0.12-0.25; in the series with Mycoplasma pneumoniae, 0.001. Further, in series [24], the tissue half-life result is reported as “prolonged tissue half-life”.

Turning to `CSC[C@H]1O[C@@H](n2cnc3c(N)ncnc32)[C@H](O)[C@@H]1O` [Methylthioadenosine, 5'-Deoxy-5'-(methylthio)adenosine], in series [7], the “enhanced killing with erythromycin” value is listed as “enhanced the killing”. In addition, the “inhibition of spermine and spermidine synthesis” value in the series on polyamine biosynthesis is “inhibitor of spermine and spermidine synthesis”. In addition, in the series with methyl transfer from SAM, the inhibition result is “effective inhibitors”. The “inhibition of SAM-dependent methylations” value in [25] is given as “inhibitor of several SAM-dependent methylations”.
